Like-named read-outs stand apart in the source and are kept apart here.
What was measured:
in vitro = conditions: African green monkey, CPE CC50, uninfected Vero E6, 72 h, Cell Titer-Glo
SARS-CoV-2 [1] = conditions: similar CPE assay with SARS-CoV-2 in Vero-E6 cells; ref [61]; cited from earlier work
Vero E6 cells = conditions: for cell toxicity: Vero E6, up to 30 μM; for cytotoxic: at all concentrations
[2] = cited from earlier work; for Cmax: human plasma, clinically efficacious doses
LC3B [3] = assay: LC3B immunostaining autophagy assay, average of four cell lines; type: cell-based; conditions: for EC50: 16 h, read-out: Autophagy EC50
Vero-E6 cells [4] = assay: Nuclei counts in autophagy assay in Vero-E6 cells; type: cell-based; conditions: for cytotoxicity based on nuclei counts: highest concentrations (50 μM for all except for ROC-325 at 25 μM)
SARS-CoV-2 [5] = type: cell-based, SARS CoV-2 (USA_WA1/2020); conditions: Vero-E6, up to 30 μM
Cell = type: cell-based
[6] = in monkey; ref [77]; cited from earlier work
LC3B [7] = assay: LC3B immunostaining autophagy assay in Vero-E6 cells; type: cell-based; conditions: ~16 h; for LC3B spot counts: Vero-E6, 50 μM – 0.02 μM
Vero-E6 cells [8] = conditions: drug-repurposing screen in Vero-E6 cells; ref [61]; cited from earlier work
acidic organelles = assay: LysoTracker Deep Red staining assay in Vero-E6 cells; type: cell-based; conditions: Vero-E6, cell counts, highest concentration
LC3B [9] = assay: LC3B immunostaining autophagy assay in Huh-7.5 cells; type: cell-based, human

SMILES	CC50 (in vitro)	IC50 (SARS-CoV-2 [1])	cell toxicity (Vero E6 cells)	cytotoxic (Vero E6 cells)	EC50 (LC3B [3])	cytotoxicity based on nuclei counts (Vero-E6 cells [4])	activity against SARS-CoV-2 CPE (SARS-CoV-2 [5])	CC50 at 16 h (Cell)	LC3B spot counts (LC3B [7])	CC50 (Vero-E6 cells [8])	further results
CCN(CC)CCCC(C)Nc1ccnc2cc(Cl)ccc12 (centres unmarked) [Chloroquine]	> 30 µM	42 µM	no associated cell toxicity	less than 50%	3.29 ± 1.86 µM	not cytotoxic	–	–	–	–	Vd ([2]; ref [78], [79]): 100 L/kg; bioavailable ([2]; ref [78], [79]): 75%
CCN(CC)CCNc1ccc(CO)c2sc3ccccc3c(=O)c12 [Hycanthone]	–	–	cytotoxic at the highest concentrations	–	7.35 ± 4.7 µM	–	moderate levels of activity	11.3 ± 2.73 µM	maximal spot counts	–	absorption [6]: well-absorbed; reduction of cell viability (Vero E6 cells; at 30 μM): ~100%; cells killed (Vero-E6 cells [4]; at 50 μM): approximately 60%
CCN(CCO)CCCC(C)Nc1ccnc2cc(Cl)ccc12 (centres unmarked) [Hydroxychloroquine, hydroxychloroquine]	> 30 µM	9.21 µM	no associated cell toxicity	less than 50%	6.55 ± 6.67 µM	not cytotoxic	–	> 50 µM	–	–	Cmax ([2]; ref [80]): 1500 nM; T1/2 ([2]; ref [80]): ~40 days; absorption ([2]; ref [80]): rapid and complete absorption
CN(C)CCCN1c2ccccc2CCc2ccc(Cl)cc21 [Clomipramine]	> 30 µM	–	–	less than 50%	–	not cytotoxic	completely prevent SARS-CoV-2 CPE	> 50 µM	–	> 30 µM	cytotoxicity (Vero E6 cells; at 30.0 μM): less than 20%; Cmax ([2]; ref [76]): 290 nM; Vd ([2]; ref [76]): high; increasing LC3B (LC3B [3]; all cell lines except for Vero-E6): effective; submaximal increase of LC3B spot counts (LC3B [7]; Vero-E6, normalized to DMSO (0%) and CQ (100%)): 40%
OC(c1cc(C(F)(F)F)nc2c(C(F)(F)F)cccc12)C1CCCCN1 (centres unmarked) [Mefloquine]	–	7.11 µM	cytotoxic at the highest concentrations	–	–	completely toxic	moderate levels of activity	18.4 ± 2.08 µM	ineffective	> 18.5 µM	cytotoxicity (Vero E6 cells; at 15.0 to 30.0 μM): 100%; toxicity in LysoTracker assay (acidic organelles): toxic at the highest concentration; Cmax ([2]; ref [81]): 4500 nM; EC50 (LC3B [9]; Homo sapiens, Huh7.5, read-out: Autophagy EC50): 7.3 µM; LC3B spot counts (LC3B [9]; Huh-7.5): increased LC3B spot counts even at low concentrations
CCC(CC)COC(=O)[C@H](C)N[P@](=O)(OC[C@H]1O[C@@](C#N)(c2ccc3c(N)ncnn23)[C@H](O)[C@@H]1O)Oc1ccccc1 [Remdesivir, remdesivir]	–	–	no apparent cytotoxicity	–	–	–	–	–	–	–	–

Reference: PMC7259466 (bioRxiv, 2020)
